From ChEMBL document CHEMBL5104090, “Recent advances in the medicinal chemistry of carbonic anhydrase inhibitors” (Eur J Med Chem, 2021)

How the values were obtained:
[1] = target: Carbonic anhydrase 12 (Homo sapiens, UniProt O43570)
[2] = target: T1, Carbonic anhydrase 9 (Homo sapiens, UniProt Q16790)
[3] = target: Carbonic anhydrase 1 (Homo sapiens, UniProt P00915)
[4] = system: Ca9-22; assay: cells; type: functional; settings: Homo sapiens, time 48 hrs
Description: Cytotoxicity against human Ca9-22 cells assessed as cell growth inhibition measured after 48 hrs by MTT assay

[5] = target: T1, Carbonic anhydrase 9; remark: listed apart in the source

Chain of Carbonic anhydrase 12 (O43570 whole entry): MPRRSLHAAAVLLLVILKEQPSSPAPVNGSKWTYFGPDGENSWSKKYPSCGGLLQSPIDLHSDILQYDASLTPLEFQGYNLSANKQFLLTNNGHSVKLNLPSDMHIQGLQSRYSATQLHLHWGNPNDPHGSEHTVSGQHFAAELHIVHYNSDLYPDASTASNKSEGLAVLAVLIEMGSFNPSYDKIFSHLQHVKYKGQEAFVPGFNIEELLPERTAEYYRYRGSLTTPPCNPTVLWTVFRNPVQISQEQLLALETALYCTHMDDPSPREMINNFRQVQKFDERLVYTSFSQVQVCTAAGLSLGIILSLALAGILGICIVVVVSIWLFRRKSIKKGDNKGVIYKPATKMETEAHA
Chain of Carbonic anhydrase 1 (P00915 whole entry): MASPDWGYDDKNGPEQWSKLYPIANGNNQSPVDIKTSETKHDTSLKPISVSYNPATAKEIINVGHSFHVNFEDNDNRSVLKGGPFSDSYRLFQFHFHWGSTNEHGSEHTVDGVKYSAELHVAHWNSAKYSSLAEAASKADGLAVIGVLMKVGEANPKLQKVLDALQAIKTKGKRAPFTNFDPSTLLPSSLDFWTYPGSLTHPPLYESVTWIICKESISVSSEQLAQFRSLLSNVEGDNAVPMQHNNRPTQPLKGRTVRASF

| Ki [1] [nM] | Ki [2] [nM] | Ki [3] [nM] | Ki [5] [nM] | SMILES | CC50 [4] [nM] |
| --- | --- | --- | --- | --- | --- |
| 34.3 | 13.9 |  |  | CN1C(=O)/C(=N\NC(=O)CNc2ccc(S(N)(=O)=O)cc2)c2ccccc21 |  |
|  | 169 |  |  | C/C(=N\O)c1ccc(N2C(=O)c3ccc(C(C)(C)C)cc3C2=O)cc1 |  |
|  | 169 |  |  | C/C(=N\O)c1ccc(N2C(=O)c3c(Cl)c(Cl)c(Cl)c(Cl)c3C2=O)cc1 |  |
| > 9 | > 44 | > 230 |  | COc1ccc(C2CC(c3cccs3)=NN2c2ccc(S(N)(=O)=O)cc2)c(OC)c1OC (configuration not stated) | 6300 |
|  | 83.8 |  |  | C/C(=N\NC(=O)c1ccc(S(N)(=O)=O)cc1)c1ccc(N2C(=O)c3ccc(C(C)(C)C)cc3C2=O)cc1 |  |
| > 9 | > 44 | > 230 |  | COc1cc(OC)c(C2CC(c3ccccc3)=NN2c2ccc(S(N)(=O)=O)cc2)cc1OC (configuration not stated) | 6300 |
| > 9 | > 44 | > 230 |  | COc1cc(OC)c(C2CC(c3ccc(F)cc3)=NN2c2ccc(S(N)(=O)=O)cc2)cc1OC (configuration not stated) | 6300 |
| 22.3 |  |  |  | COc1ccc(C(=O)N2C(=O)/C(=N\NC(=O)CNc3ccc(S(N)(=O)=O)cc3)c3ccccc32)cc1 |  |
| 34.3 |  |  |  | C=CCN1C(=O)/C(=N\Nc2ccc(S(N)(=O)=O)cc2)c2ccccc21 |  |
| 34.3 | 13.9 |  |  | C=CCN1C(=O)/C(=N\c2ccc(S(N)(=O)=O)cc2)c2ccccc21 |  |
|  | 169 |  |  | C/C(=N\NC(=O)c1ccc(S(N)(=O)=O)cc1)c1ccc(N2C(=O)c3cc(Cl)c(Cl)cc3C2=O)cc1 |  |
| > 9 | > 44 | > 230 |  | COc1cc(OC)c(C2CC(c3cccs3)=NN2c2ccc(S(N)(=O)=O)cc2)cc1OC (configuration not stated) | 6300 |
|  | 17.3 |  |  | C/C(=N\NC(=O)c1ccc(S(N)(=O)=O)cc1)c1ccc(N2C(=O)C3C(C2=O)C2(Cl)C(Cl)=C(Cl)C3(Cl)C2(Cl)Cl)cc1 (configuration not stated) |  |
| > 9 | > 44 | > 230 |  | COc1cc(OC)c(C2CC(c3ccc(Cl)cc3)=NN2c2ccc(S(N)(=O)=O)cc2)cc1OC (configuration not stated) | 6300 |
|  | 13.9 |  |  | CN1C(=O)/C(=N\Nc2ccc(S(N)(=O)=O)cc2)c2ccccc21 |  |
|  |  |  | 19.3 | NS(=O)(=O)c1ccc(CCn2c(SCc3ccc(F)cc3)nc3ccccc3c2=O)cc1 |  |
| > 9 | > 44 | > 230 |  | COc1cc(OC)c(C2CC(c3ccc(C(F)(F)F)cc3)=NN2c2ccc(S(N)(=O)=O)cc2)cc1OC (configuration not stated) | 6300 |
| > 9 | > 44 | > 230 |  | COc1cc(OC)c(C2CC(c3ccc(Br)cc3)=NN2c2ccc(S(N)(=O)=O)cc2)cc1OC (configuration not stated) | 6300 |
| > 9 | > 44 | > 230 |  | COc1ccc(C2CC(c3ccc(F)cc3)=NN2c2ccc(S(N)(=O)=O)cc2)c(OC)c1OC (configuration not stated) | 6300 |

| Ki [1] [nM] | Ki [2] [nM] | Ki [3] [nM] | Ki [5] [nM] | SMILES | CC50 [4] [nM] |
| --- | --- | --- | --- | --- | --- |
|  | 17.3 |  |  | C/C(=N\NC(=O)c1ccc(S(N)(=O)=O)cc1)c1ccc(N2C(=O)c3ccc(C)cc3C2=O)cc1 |  |
|  | 17.3 |  |  | C/C(=N\NC(=O)c1ccc(S(N)(=O)=O)cc1)c1ccc(N2C(=O)c3ccccc3C2=O)cc1 |  |
|  | 17.3 |  |  | C/C(=N\NC(=O)c1ccc(S(N)(=O)=O)cc1)c1ccc(N2C(=O)c3c(Br)c(Br)c(Br)c(Br)c3C2=O)cc1 |  |
| 7.4 |  |  |  | CC(C)[C@@H](CC(=O)[C@@H](C)CC(=O)OCc1ccccc1)C(=O)NCc1ccc(S(N)(=O)=O)cc1 |  |
|  | 169 |  |  | C/C(=N\O)c1ccc(N2C(=O)c3c(Br)c(Br)c(Br)c(Br)c3C2=O)cc1 |  |
|  | 169 |  |  | C/C(=N\O)c1ccc(N2C(=O)c3cc(Cl)c(Cl)cc3C2=O)cc1 |  |
|  | 23.6 |  |  | CCN1C(=O)/C(=N\Nc2ccc(S(N)(=O)=O)cc2)c2ccccc21 |  |
|  | 169 |  |  | C/C(=N\O)c1ccc(N2C(=O)c3ccc(C)cc3C2=O)cc1 |  |
|  | 169 |  |  | C/C(=N\O)c1ccc(N2C(=O)C3CC=CCC3C2=O)cc1 (configuration not stated) |  |
|  | 65.3 |  |  | NS(=O)(=O)c1ccc(NCC(=O)N/N=C2\C(=O)N(C(=O)c3ccccc3)c3ccccc32)cc1 |  |
| 34.3 | 13.9 |  |  | NS(=O)(=O)c1ccc(/N=C2\C(=O)N(Cc3ccccc3)c3ccccc32)cc1 |  |
|  | 1.8 |  |  | CC(C)(C)OC(=O)C[C@H](Cc1ccccc1)C(=O)CCC(=O)NCc1ccc(S(N)(=O)=O)cc1 |  |
| 34.3 | 13.9 |  |  | C=CCN1C(=O)/C(=N\NC(=O)CNc2ccc(S(N)(=O)=O)cc2)c2ccccc21 |  |
| > 9 | > 44 | > 230 |  | COc1ccc(C2CC(c3ccc(C(F)(F)F)cc3)=NN2c2ccc(S(N)(=O)=O)cc2)c(OC)c1OC (configuration not stated) | 6300 |
| > 9 | > 44 | > 230 |  | COc1cc(C2CC(c3ccccc3)=NN2c2ccc(S(N)(=O)=O)cc2)cc(OC)c1OC (configuration not stated) | 6300 |
| 34.3 |  |  |  | CCN1C(=O)/C(=N\NC(=O)CNc2ccc(S(N)(=O)=O)cc2)c2ccccc21 |  |
| > 9 | > 44 | > 230 |  | COc1cc(C2CC(c3ccc(Br)cc3)=NN2c2ccc(S(N)(=O)=O)cc2)cc(OC)c1OC (configuration not stated) | 6300 |
|  | 1.6 |  |  | COc1ccc2nc(S/C(=N/Nc3ccc(S(N)(=O)=O)cc3)C(C)=O)n(-c3ccccc3)c(=O)c2c1 |  |
| > 9 | > 44 | > 230 |  | COc1cc(C2CC(c3ccc(Cl)cc3)=NN2c2ccc(S(N)(=O)=O)cc2)cc(OC)c1OC (configuration not stated) | 6300 |

| Ki [1] [nM] | Ki [2] [nM] | Ki [3] [nM] | Ki [5] [nM] | SMILES | CC50 [4] [nM] |
| --- | --- | --- | --- | --- | --- |
| 34.3 | 13.9 |  |  | CN1C(=O)/C(=N\c2ccc(S(N)(=O)=O)cc2)c2ccccc21 |  |
| 34.3 |  |  |  | NS(=O)(=O)c1ccc(NCC(=O)N/N=C2\C(=O)Nc3ccccc32)cc1 |  |
|  | 13.9 |  |  | NS(=O)(=O)c1ccc(N/N=C2\C(=O)N(Cc3ccccc3)c3ccccc32)cc1 |  |
| > 9 | > 44 | > 230 |  | COc1cc(C2CC(c3ccc(C(F)(F)F)cc3)=NN2c2ccc(S(N)(=O)=O)cc2)cc(OC)c1OC (configuration not stated) | 6300 |
|  |  |  | 0.21 | NS(=O)(=O)c1ccc(N/C=C/C(=O)c2ccccc2)cc1 |  |
|  | 169 |  |  | C/C(=N\O)c1ccc(N2C(=O)C3C(C2=O)C2(Cl)C(Cl)=C(Cl)C3(Cl)C2(Cl)Cl)cc1 (configuration not stated) |  |
|  | 17.3 |  |  | C/C(=N\NC(=O)c1ccc(S(N)(=O)=O)cc1)c1ccc(N2C(=O)C3CC=CCC3C2=O)cc1 (configuration not stated) |  |
| > 9 | > 44 | > 230 |  | COc1ccc(C2CC(c3ccc(Br)cc3)=NN2c2ccc(S(N)(=O)=O)cc2)c(OC)c1OC (configuration not stated) | 6300 |
|  | 169 |  |  | C/C(=N\O)c1ccc(N2C(=O)c3ccccc3C2=O)cc1 |  |
| 34.3 | 13.9 |  |  | CCN1C(=O)/C(=N\c2ccc(S(N)(=O)=O)cc2)c2ccccc21 |  |
|  | 1.2 |  |  | NS(=O)(=O)c1cccc(-c2nc(-c3cccnc3)no2)c1 |  |
| 5.2 |  |  |  | NS(=O)(=O)c1ccc(CCNC(=O)CSc2nc3ccc(I)cc3c(=O)n2Cc2ccccc2)cc1 |  |
| > 9 | > 44 | > 230 |  | COc1ccc(C2CC(c3ccc(Cl)cc3)=NN2c2ccc(S(N)(=O)=O)cc2)c(OC)c1OC (configuration not stated) | 6300 |
|  | 17.3 |  |  | C/C(=N\NC(=O)c1ccc(S(N)(=O)=O)cc1)c1ccc(N2C(=O)c3ccc(C(=O)O)cc3C2=O)cc1 |  |
|  | 169 |  |  | C/C(=N\O)c1ccc(N2C(=O)c3ccc(C(=O)O)cc3C2=O)cc1 |  |
|  | 6.9 |  |  | O=S1(=O)C=Cc2cc(-n3nncc3-c3ccc(F)cc3)ccc2O1 |  |
|  | 14.8 |  |  | Cc1ccc(-c2cc(C(F)(F)F)nn2-c2ccc(S(N)(=O)=O)cc2)cc1 [CELECOXIB] |  |
|  |  |  | 0.21 | Cc1ccc(C(=O)/C=C/Nc2ccc(S(N)(=O)=O)cc2)cc1 |  |
